Assay results reported in US20250034139A1, “AMINE COMPOUNDS HAVING ANTI-INFLAMMATORY, ANTIFUNGAL, ANTIPARASITIC, AND ANTICANCER ACTIVITY” (PHARMA CINQ, LLC, priority 2013, published 2025).

The compounds below were run on PC-3 prostate cancer cells (assay: Example T: sensitisation of PC-3 cells to doxorubicin, oxaliplatin, paclitaxel or vincristine, Wst1). Conditions: Homo sapiens; PC-3 cells; compound 2.5 μM alone; 72 hours; Wst1; vehicle = 100; read-out: No Chemo: percent cell survival.
Format: cell-based, human

Row | SMILES | viability at 2.5 µM
1 | CCCCCCOCCCCCCCCNc1cnc2ccccc2c1 [EL, N-[8-(Hexyloxy)octyl]quinolin-3-amine] | 41.8%
2 | CCOCc1nc2cnc3ccccc3c2n1CC(C)(C)O [FB, 1-[2-(Ethoxymethyl)-1H-imidazo[4,5-c]quinolin-1-yl]-2-methylpropan-2-ol] | 97.7%
3 | CCCCCCOc1cccc(OCCCn2cnc3cnc4ccccc4c32)c1 [GD, 1-{3-[3-(Hexyloxy)phenoxy]propyl}-1H-imidazo[4,5-c]quinoline] | 24.3%

Same assay, conditions: Homo sapiens; PC-3 cells; compound 5 μM alone; 72 hours; Wst1; vehicle = 100; read-out: No Chemo: percent cell survival

Row | SMILES | viability at 5 µM
4 | COCCCCCNc1ccnc2ccccc12 [CM, N-(5-Methoxypentyl)quinolin-4-amine] | 37.8%
5 | CCCCCCCCCCCCCCCc1nc2c(O)nc3ccccc3c2n1CC(C)C [FD, 1-Isobutyl-2-pentadecyl-1H-imidazo[4,5-c]quinolin-4-ol] | 112%
6 | CCCCCCCCCCCCCCCCn1cnc2cnc3ccccc3c21 [FE, 1-Hexadecyl-1H-imidazo[4,5-c]quinoline] | 34.2%
7 | CCCCCCCCCCCCCCCCn1cnc2c(N)nc3ccccc3c21 [FF, 1-Hexadecyl-1H-imidazo[4,5-c]quinolin-4-amine] | 93%

Same assay, conditions: PC-3 cells; compound 2.5 μM + doxorubicin 3.5 μM; 72 hours; chemotherapy agent alone normalized to 100%

Row | SMILES | Doxorubicin 3.5 μM: percent cell survival
8 | CCCCCCOCCCCCCCCNc1cnc2ccccc2c1 [EL, N-[8-(Hexyloxy)octyl]quinolin-3-amine] | 73.7%
9 | CCOCc1nc2cnc3ccccc3c2n1CC(C)(C)O [FB, 1-[2-(Ethoxymethyl)-1H-imidazo[4,5-c]quinolin-1-yl]-2-methylpropan-2-ol] | 89.1%
10 | CCCCCCOc1cccc(OCCCn2cnc3cnc4ccccc4c32)c1 [GD, 1-{3-[3-(Hexyloxy)phenoxy]propyl}-1H-imidazo[4,5-c]quinoline] | 39.5%

Same assay, conditions: PC-3 cells; compound 2.5 μM + oxaliplatin 100 μM; 72 hours; chemotherapy agent alone normalized to 100%

Row | SMILES | Oxaliplatin 100 μM: percent cell survival
11 | CCCCCCOCCCCCCCCNc1cnc2ccccc2c1 [EL, N-[8-(Hexyloxy)octyl]quinolin-3-amine] | 99.4%
12 | CCOCc1nc2cnc3ccccc3c2n1CC(C)(C)O [FB, 1-[2-(Ethoxymethyl)-1H-imidazo[4,5-c]quinolin-1-yl]-2-methylpropan-2-ol] | 95.5%
13 | CCCCCCOc1cccc(OCCCn2cnc3cnc4ccccc4c32)c1 [GD, 1-{3-[3-(Hexyloxy)phenoxy]propyl}-1H-imidazo[4,5-c]quinoline] | 26.7%

Same assay, conditions: PC-3 cells; compound 2.5 μM + paclitaxel 50 μM; 72 hours; chemotherapy agent alone normalized to 100%

Row | SMILES | Paclitaxel 50 μM: percent cell survival
14 | CCCCCCOCCCCCCCCNc1cnc2ccccc2c1 [EL, N-[8-(Hexyloxy)octyl]quinolin-3-amine] | 86.1%
15 | CCOCc1nc2cnc3ccccc3c2n1CC(C)(C)O [FB, 1-[2-(Ethoxymethyl)-1H-imidazo[4,5-c]quinolin-1-yl]-2-methylpropan-2-ol] | 93.2%
16 | CCCCCCOc1cccc(OCCCn2cnc3cnc4ccccc4c32)c1 [GD, 1-{3-[3-(Hexyloxy)phenoxy]propyl}-1H-imidazo[4,5-c]quinoline] | 27%

Same assay, conditions: PC-3 cells; compound 2.5 μM + vincristine 100 nM; 72 hours; chemotherapy agent alone normalized to 100%

Row | SMILES | Vincristine 100 nM: percent cell survival
17 | CCCCCCOCCCCCCCCNc1cnc2ccccc2c1 [EL, N-[8-(Hexyloxy)octyl]quinolin-3-amine] | 70.8%
18 | CCOCc1nc2cnc3ccccc3c2n1CC(C)(C)O [FB, 1-[2-(Ethoxymethyl)-1H-imidazo[4,5-c]quinolin-1-yl]-2-methylpropan-2-ol] | 98.6%
19 | CCCCCCOc1cccc(OCCCn2cnc3cnc4ccccc4c32)c1 [GD, 1-{3-[3-(Hexyloxy)phenoxy]propyl}-1H-imidazo[4,5-c]quinoline] | 23.5%

Same assay, conditions: PC-3 cells; compound 5 μM + doxorubicin 3.5 μM; 72 hours; chemotherapy agent alone normalized to 100%

Row | SMILES | Doxorubicin 3.5 μM: percent cell survival
20 | COCCCCCNc1ccnc2ccccc12 [CM, N-(5-Methoxypentyl)quinolin-4-amine] | 72.6%
21 | CCCCCCCCCCCCCCCc1nc2c(O)nc3ccccc3c2n1CC(C)C [FD, 1-Isobutyl-2-pentadecyl-1H-imidazo[4,5-c]quinolin-4-ol] | 101%
22 | CCCCCCCCCCCCCCCCn1cnc2cnc3ccccc3c21 [FE, 1-Hexadecyl-1H-imidazo[4,5-c]quinoline] | 46.8%
23 | CCCCCCCCCCCCCCCCn1cnc2c(N)nc3ccccc3c21 [FF, 1-Hexadecyl-1H-imidazo[4,5-c]quinolin-4-amine] | 90.7%

Same assay, conditions: PC-3 cells; compound 5 μM + oxaliplatin 100 μM; 72 hours; chemotherapy agent alone normalized to 100%

Row | SMILES | Oxaliplatin 100 μM: percent cell survival
24 | COCCCCCNc1ccnc2ccccc12 [CM, N-(5-Methoxypentyl)quinolin-4-amine] | 78.1%
25 | CCCCCCCCCCCCCCCc1nc2c(O)nc3ccccc3c2n1CC(C)C [FD, 1-Isobutyl-2-pentadecyl-1H-imidazo[4,5-c]quinolin-4-ol] | 85.3%
26 | CCCCCCCCCCCCCCCCn1cnc2cnc3ccccc3c21 [FE, 1-Hexadecyl-1H-imidazo[4,5-c]quinoline] | 67.6%
27 | CCCCCCCCCCCCCCCCn1cnc2c(N)nc3ccccc3c21 [FF, 1-Hexadecyl-1H-imidazo[4,5-c]quinolin-4-amine] | 95.2%

Same assay, conditions: PC-3 cells; compound 5 μM + paclitaxel 50 μM; 72 hours; chemotherapy agent alone normalized to 100%

Row | SMILES | Paclitaxel 50 μM: percent cell survival
28 | COCCCCCNc1ccnc2ccccc12 [CM, N-(5-Methoxypentyl)quinolin-4-amine] | 74.8%
29 | CCCCCCCCCCCCCCCc1nc2c(O)nc3ccccc3c2n1CC(C)C [FD, 1-Isobutyl-2-pentadecyl-1H-imidazo[4,5-c]quinolin-4-ol] | 95.6%
30 | CCCCCCCCCCCCCCCCn1cnc2cnc3ccccc3c21 [FE, 1-Hexadecyl-1H-imidazo[4,5-c]quinoline] | 113.7%
31 | CCCCCCCCCCCCCCCCn1cnc2c(N)nc3ccccc3c21 [FF, 1-Hexadecyl-1H-imidazo[4,5-c]quinolin-4-amine] | 136.1%

Same assay, conditions: PC-3 cells; compound 5 μM + vincristine 100 nM; 72 hours; chemotherapy agent alone normalized to 100%

Row | SMILES | Vincristine 100 nM: percent cell survival
32 | COCCCCCNc1ccnc2ccccc12 [CM, N-(5-Methoxypentyl)quinolin-4-amine] | 81.3%
33 | CCCCCCCCCCCCCCCc1nc2c(O)nc3ccccc3c2n1CC(C)C [FD, 1-Isobutyl-2-pentadecyl-1H-imidazo[4,5-c]quinolin-4-ol] | 98.7%
34 | CCCCCCCCCCCCCCCCn1cnc2cnc3ccccc3c21 [FE, 1-Hexadecyl-1H-imidazo[4,5-c]quinoline] | 37.3%
35 | CCCCCCCCCCCCCCCCn1cnc2c(N)nc3ccccc3c21 [FF, 1-Hexadecyl-1H-imidazo[4,5-c]quinolin-4-amine] | 110.1%

These compounds were tested on PC3 human prostate cancer cells (assay: Example S: in vitro anticancer screen, PC-3 cells, Wst1). Conditions: Homo sapiens, PC-3; 2.5 μM, approximately 20 hours, Wst1; read-out: PC-3, percent of cancer cell survival relative to vehicle treated cells.
Format: cell-based
Method: Activity against PC3 human prostate cancer cells in vitro was assessed by a similar method. PC-3 prostate cancer cells were plated at 2×10^4 cells/well in 96 well flat bottom tissue culture plates, and incubated for approximately 20 hours with vehicle or test compounds at concentrations of 0.4, 0.5 or 2.5 μM as indicated for specific compounds in the right-hand column of Table 37. A 1/10th volume of Wst1 dye was added/well and incubated for two hours in the cell culture incubator. Samples were analyzed in triplicate on an EL800 Universal Microplate Reader at 450 nm, reference wavelength 630 nm.
(§1) Numerical values in the Table 37 represent percent of cancer cell survival relative to vehicle treated cells at the indicated concentrations, with values under 100 indicating anticancer cytotoxic activity at the drugs concentrations tested.

Row | SMILES | viability at 2.5 µM
36 | CCCCCCOCCCCCCCCNc1cnc2ccccc2c1 [EL, N-[8-(Hexyloxy)octyl]quinolin-3-amine] | 41.8%
37 | CCOCc1nc2cnc3ccccc3c2n1CC(C)(C)O [FB, 1-[2-(Ethoxymethyl)-1H-imidazo[4,5-c]quinolin-1-yl]-2-methylpropan-2-ol] | 97.7%
38 | CCCCCCOc1cccc(OCCCn2cnc3cnc4ccccc4c32)c1 [GD, 1-{3-[3-(Hexyloxy)phenoxy]propyl}-1H-imidazo[4,5-c]quinoline] | 24.3%

Same assay, conditions: Homo sapiens, PC-3; 5 μM, approximately 20 hours, Wst1; read-out: PC-3, percent of cancer cell survival relative to vehicle treated cells

Row | SMILES | viability at 5 µM
39 | COCCCCCNc1ccnc2ccccc12 [CM, N-(5-Methoxypentyl)quinolin-4-amine] | 37.8%
40 | CCCCCCCCCCCCCCCc1nc2c(O)nc3ccccc3c2n1CC(C)C [FD, 1-Isobutyl-2-pentadecyl-1H-imidazo[4,5-c]quinolin-4-ol] | 112%
41 | CCCCCCCCCCCCCCCCn1cnc2cnc3ccccc3c21 [FE, 1-Hexadecyl-1H-imidazo[4,5-c]quinoline] | 34.2%
42 | CCCCCCCCCCCCCCCCn1cnc2c(N)nc3ccccc3c21 [FF, 1-Hexadecyl-1H-imidazo[4,5-c]quinolin-4-amine] | 93%

What follows are compounds tested on 4T1 murine breast cancer cells (assay: Example S: in vitro anticancer screen, 4T1 cells, Wst1). Conditions: Mus musculus, 4T1, 18 h, 1 μM, 18 hr, Wst1; read-out: 4T1 1 μM, percent of cancer cell survival relative to vehicle treated cells.
Format: cell-based, mouse
Method: Anticancer activity against 4T1 murine breast cancer cells cancer cells was assessed in vitro by seeding 1×10^4 cells/well in flat bottom culture plates, then treating with selected 1 μM or 5 μM concentrations of compounds for 18 hr after plating. Then 10 μL of Wst1 dye reagent, a tetrazolium dye indicator for […], was added/well and incubated approximately 2 hr before being assayed on the Biotek EL800 Universal microplate reader (450 nm, reference 630 nm).
as §1

Row | SMILES | viability at 1 µM
43 | COCCCCCNc1ccnc2ccccc12 [CM, N-(5-Methoxypentyl)quinolin-4-amine] | 104%
44 | CCCCCCOCCCCCCCCNc1cnc2ccccc2c1 [EL, N-[8-(Hexyloxy)octyl]quinolin-3-amine] | 108%
45 | CCOCc1nc2cnc3ccccc3c2n1CC(C)(C)O [FB, 1-[2-(Ethoxymethyl)-1H-imidazo[4,5-c]quinolin-1-yl]-2-methylpropan-2-ol] | 92.7%
46 | CCCCCCCCCCCCCCCc1nc2c(O)nc3ccccc3c2n1CC(C)C [FD, 1-Isobutyl-2-pentadecyl-1H-imidazo[4,5-c]quinolin-4-ol] | 106%
47 | CCCCCCCCCCCCCCCCn1cnc2cnc3ccccc3c21 [FE, 1-Hexadecyl-1H-imidazo[4,5-c]quinoline] | 108%
48 | CCCCCCCCCCCCCCCCn1cnc2c(N)nc3ccccc3c21 [FF, 1-Hexadecyl-1H-imidazo[4,5-c]quinolin-4-amine] | 103%

Same assay, conditions: Mus musculus, 4T1, 18 h, 5 μM, 18 hr, Wst1; read-out: 4T1 5 μM, percent of cancer cell survival relative to vehicle treated cells

Row | SMILES | viability at 5 µM
49 | COCCCCCNc1ccnc2ccccc12 [CM, N-(5-Methoxypentyl)quinolin-4-amine] | 221%
50 | CCCCCCOCCCCCCCCNc1cnc2ccccc2c1 [EL, N-[8-(Hexyloxy)octyl]quinolin-3-amine] | 39.4%
51 | CCOCc1nc2cnc3ccccc3c2n1CC(C)(C)O [FB, 1-[2-(Ethoxymethyl)-1H-imidazo[4,5-c]quinolin-1-yl]-2-methylpropan-2-ol] | 90%
52 | CCCCCCCCCCCCCCCc1nc2c(O)nc3ccccc3c2n1CC(C)C [FD, 1-Isobutyl-2-pentadecyl-1H-imidazo[4,5-c]quinolin-4-ol] | 112%
53 | CCCCCCCCCCCCCCCCn1cnc2cnc3ccccc3c21 [FE, 1-Hexadecyl-1H-imidazo[4,5-c]quinoline] | 31.7%
54 | CCCCCCCCCCCCCCCCn1cnc2c(N)nc3ccccc3c21 [FF, 1-Hexadecyl-1H-imidazo[4,5-c]quinolin-4-amine] | 102%
